Reference: patent US9504671B2, “Pharmaceutical compositions of spiro-oxindole compound for topical administration and their use as therapeutic agents” (Xenon Pharmaceuticals Inc., priority 2010, dated 2016)

How the values were obtained:
[1] = system: STZ-induced neuropathic pain model; assay: STZ model of diabetic neuropathy, von Frey; type: in vivo, male Sprague-Dawley rats; settings: 50 mg on left foot, 30 minutes post-dosing
Source text: This study evaluates the efficacy of a pharmaceutical composition of the invention in the STZ-induced neuropathic pain model in male Sprague-Dawley rats, following acute dosing, as compared with a 5% (w/v) topical Lidocaine (Xylocaine®) and a 1.16% (w/v) topical Diclofenac (Voltaren®). A rodent model of painful peripheral diabetic neuropathy (PDN) that mimics human condition was created by inducing a diabetic state in the rat through the ablation of the insulin producing pancreatic beta cells. A single streptozotocin (STZ) injection destroys beta cells in rats and produces a diabetic state that over time progresses to painful Peripheral Diabetic Neuropathy (PDN).
Streptozotocin (STZ) was dissolved in citrate buffer (20 mM, pH 4.5) and administered at a dose of 60 mg/Kg, intraperitoneal, to induce pancreatic beta-cell death. Blood glucose level was measured once a week following injection, using the AccuSoft Blood Glucose Monitoring System. […] Hyperalgesia and allodynia, which are signs of diabetic neuropathic pain, were monitored using the von Frey test as described below. Von Frey measurements were recorded from both left and right paws. Only those with significant hyperalgesia as determined by reduced threshold, measured in grams, of paw withdrawal to the von Frey filament were enrolled in the study. […] During this time their health status was closely monitored.
The animals were randomly divided into 4 test groups (n=7 animals/group) including a vehicle control, a 5% (w/v) Lidocaine (Xylocaine®), a 1.16% (w/v) Diclofenac (Voltaren®), and a pharmaceutical composition with 4% (w/w) COMPOUND A. After baseline measurement, 50 mg of the test composition was applied on the entire left foot. […] The paw withdrawal thresholds of animals from mechanical tactile stimuli were measured using the Electrovonfrey anesthesiometer (Model 2290, IITC Life Science, Woodland Hills, Calif.). […] The force (g) required to elicit a crisp withdrawal response was recorded before dosing as a baseline measurement, and at 30 minutes post-dosing. […]

[2] = system: CCI-induced neuropathic pain model; assay: time course of efficacy in neuropathic pain model, Chronic Constriction Injury, von Frey; type: in vivo, Sprague-Dawley rats
Method: Neuropathic pain is characterized by spontaneous pain and stimulus-evoked allodynia and hyperalgesia. Pharmaceutical compositions of the invention were evaluated in Chronic Constriction Injury model using Sprague-Dawley rats as described below.
An approximately 3 cm incision was made through the skin and the fascia at the mid thigh level of a rat's left hind leg using a no. 10 scalpel blade. The left sciatic nerve was exposed via blunt dissection through the biceps femoris with care to minimize haemorrhagia. Four loose ligatures were tied along the sciatic nerve using four chromic gut sutures at intervals of 1 mm to 2 mm apart. The tension of the loose ligatures was tight enough to induce slight constriction of the sciatic nerve when viewed under a dissection microscope at a magnification of 4 fold. As sham controls, the right sciatic nerve was exposed and manipulated in the same manner as described above, except sutures were not tied onto the nerve. Antibacterial ointment was applied directly into the wound, and the muscle was closed using sterilized sutures. Betadine® was applied onto the muscle and its surroundings, followed by skin closure with surgical clips.
A painful neuropathy was allowed to develop for at least 14 days in the ipsilateral leg as determined by lower paw withdrawal thresholds to a mechanical stimulus. Only those with significant hyperalgesia, as determined by reduced threshold of paw withdrawal to the von Frey filament, measured in grams, were enrolled in the study.
The response thresholds of animals to tactile stimuli were measured using the Model 2290 Electrovonfrey anesthesiometer (IITC Life Science, Woodland Hills, Calif.). Animals were placed in an elevated Plexiglass enclosure set on a mire mesh surface. After 15 minutes of accommodation, a von Frey hair was applied perpendicularly to the plantar surface of the ipsilateral hind paws of the animals with sufficient force, measured in grams, to elicit a crisp response of the paw. The response indicated a withdrawal from the painful stimulus and constituted the efficacy endpoint. The force (in grams) required to elicit a crisp withdrawal response was recorded before dosing as a baseline measurement, and at multiple time points post-dosing.
Three days prior to baseline measurement, animals were anaesthetized under isoflurane and the whole of the ipsilateral hind legs, including the upper sciatic notch thigh area, ankle and foot, was shaved. The animals were then randomly assigned to one of 4 different test groups including a vehicle control group, a 5% (w/v) Lidocaine (Xylocaine®), and 2 pharmaceutical compositions of the invention comprising COMPOUND A at 4% (w/w) containing either 5% or 10% Transcutol® P. After baseline measurement, 100 mg of the test composition was applied on the entire shaved area. The animals were then placed in plastic tubes for at least 15 minutes, to prevent early removal/ingestion of drug. Subsequently, animals were placed in the Plexiglas enclosure 15 minutes before von Frey measurement at the respective time points. Von Frey withdrawal thresholds were measured as the mean of several independent determinations made within 1-2 minutes of each other on the affected paw of each animal at 0.5, 1 and 2 hours post dosing.

Compound	paw withdrawal threshold of treated paw, CFB ([1]; 1.16% (w/v) topical)	paw withdrawal threshold of treated paw, percent mean change from baseline (CFB) ([1]; 5% (w/v) topical) [%]	paw withdrawal threshold, percent mean change from baseline (CFB) ([2]; 5% (w/v) topical, 100 mg applied, 0.5 hours post-dosing)	paw withdrawal threshold, CFB ([2]; 5% (w/v) topical, time points later than 0.5 hours post-dosing, p>0.05)	duration of analgesic effects post-dosing ([2]; 5% topical)
O=C(O)Cc1ccccc1Nc1c(Cl)cccc1Cl [Diclofenac]	No significant CFB				
CCN(CC)CC(=O)Nc1c(C)cccc1C [Lidocaine, reference compound]		25.9	+23.1%	No significant changes	up to 0.5 hours
